Test results taken from EP0313846B1, “Method for controlling chronic respiratory disease, and necrotic enteritis in avian species” (AMERICAN CYANAMID COMPANY, priority 1987, dated 1989).
In brackets after ≈: the same amount, converted by molar mass. Like-named read-outs stand apart in the source and are kept apart here.

Assays:
[1] = tested on: Mycoplasma gallisepticum "R"; assay: Minimum inhibitory concentration assay for Mycoplasma gallisepticum (microdilution, Table VI); assay type: cell-based; conditions: Mycoplasmoides gallisepticum
Protocol: • 1. […] Both cultures are incubated at 37°C. […] Appropriate solvent controls are also included. • 4.

[2] = tested on: Mycoplasma gallisepticum; assay: Treatment of Mycoplasma gallisepticum caused chronic respiratory disease in poultry; assay type: in vivo; conditions: for Final Mean Body Weight (g) of Survivors / Overall % Mortality / Overall Feed-to-Gain: 7 days pre- and 7 days postchallenge; for Final Mean Body Weight (g) of Survivors / Overall % Mortality / Overall Feed-to-Gain / Mean Air Sac Lesion Scores: M. gallisepticum challenged birds; for Mean Air Sac Lesion Scores: score 0-3
Protocol: This study is conducted to evaluate the efficacy of antibiotic LL-E19020α against Mycoplasma gallisepticum caused chronic respiratory disease in poultry. The antibiotic is fed continuously at 10 and 50 g/ton for 7 days pre- and 7 days postchallenge. Birds similarly fed a diet containing 100 g/ton chlortetracycline serve as a positive control group. Infected and noninfected, nonmedicated control groups are also included. After 7 days on respective treatment diets, birds are challenged with M. gallisepticum (MG) into the right and left post-thoracic air sacs. The air sacs are cultured for the presence of Mycoplasma from all birds dying postchallenge. The air sacs of all birds are scored based on gross lesions upon necropsy at death or at study end. Survivors at study end are bled prior to necropsy for Mycoplasma gallisepticum serology testing. Body weight and feed intake measurements are made at specified intervals during the study.

[3] = tested on: Streptococcus faecalis; assay: Minimum inhibitory concentration by agar dilution (Table V); assay type: cell-based; conditions: Streptococcus faecalis (1 strain tested)
[4] = tested on: Salmonella choleraesuis; assay: as above; assay type: cell-based; conditions: Salmonella choleraesuis (2 strains tested)
[5] = tested on: Treponema hyodysenteriae; assay: T. hyodysenteriae disk test (primary in vitro disk diffusion test); assay type: cell-based; conditions: disks soaked in 2.5 mg/ml solution, zones of inhibited hemolysis
[6] = tested on: Clostridium perfringens type C; assay type: in vivo, broiler chicks; conditions: infected chicks, treatment mean; for Lesion Scores: intestinal lesion score 0-4, day 19
[7] = tested on: Pasteurella multocida 31081B; assay: Pasteurella disk test (primary in vitro disk diffusion test); assay type: cell-based; conditions: disks soaked in 2.5 mg/ml solution of test compound, zones of inhibition
Protocol: (§1) Zones of inhibition are recorded.

[8] = tested on: Pasteurella haemolytica 30660; assay: as above; assay type: cell-based; conditions: disks soaked in 2.5 mg/ml solution of test compound, zones of inhibition
Protocol: as §1

[9] = tested on: Streptococcus pyogenes; assay: Minimum inhibitory concentration by agar dilution (Table V); assay type: cell-based; conditions: Streptococcus pyogenes (2 strains tested)
[10] = tested on: Clostridium perfringens ATCC 13124; assay type: cell-based; conditions: 18 hours incubation
[11] = tested on: Streptococcus pyogenes C203; assay: In vivo antibacterial activity in infected mice (Table III); parameters: species or system female CD-1 mice; conditions: S. pyogenes C203, mice, 30 minutes before infection
[12] = tested on: Staphylococcus aureus Smith; assay: as above; parameters: species or system female CD-1 mice; conditions: S. aureus Smith, 30 minutes before infection
[13] = tested on: Streptococcus agalactiae; assay: Minimum inhibitory concentration by agar dilution (Table V); assay type: cell-based; conditions: Streptococcus agalactiae (4 strains tested)
[14] = tested on: Streptococcus uberis; assay: as above; assay type: cell-based; conditions: Streptococcus uberis (1 strain tested)
[15] = tested on: Bordetella bronchiseptica; assay: as above; assay type: cell-based; conditions: Bordetella bronchiseptica (4 strains tested)
[16] = tested on: Escherichia coli; assay: as above; assay type: cell-based; conditions: Escherichia coli (2 strains tested)
[17] = tested on: Treponema hyodysenteriae; assay: Minimum inhibitory concentration by microdilution (Table VI); assay type: cell-based
[18] = tested on: Staphylococcus aureus; assay: Minimum inhibitory concentration by agar dilution (Table V); assay type: cell-based; conditions: Staphylococcus aureus (7 strains tested)
[19] = tested on: Streptococcus sp. (β-hemolytic); assay: In vitro antibacterial activity, standard agar dilution method (Table II); assay type: cell-based; conditions: 18 hours incubation
Protocol: (§2) The in vitro antibacterial activity of LL-E19020α and β was determined against a spectrum of gram-positive and gram-negative bacteria by a standard agar dilution method. Mueller-Hinton agar containing 5% sheep blood and two-fold decreasing concentrations of either LL-E19020α or β were poured into petri dishes. The agar surfaces were inoculated with 1 to 5x10⁴ colony forming units of bacteria by means of the Steers replicating device. The lowest concentration of antibiotic that inhibited growth of a bacterial strain after 18 hours incubation was recorded as the minimal inhibitory concentration for that strain.

[20] = tested on: Streptococcus pneumoniae; assay: as above; assay type: cell-based; conditions: 18 hours incubation
Protocol: as §2

[21] = tested on: Peptococcus magnus; assay: as above; assay type: cell-based; conditions: 18 hours incubation
Protocol: as §2

[22] = tested on: Clostridium difficile ATCC 17858; assay: as above; assay type: cell-based; conditions: 18 hours incubation
Protocol: as §2

[23] = tested on: Pasteurella haemolytica; assay: Minimum inhibitory concentration by agar dilution (Table V); assay type: cell-based; conditions: Pasteurella haemolytica (3 strains tested)
[24] = 100 g/ton in feed (positive control)
[25] = Treponema hyodysenteriae B78 (ATCC 27164)
[26] = Treponema hyodysenteriae B204 (ATCC 31212)
[27] = single subcutaneous dose 4 mg/kg
[28] = single subcutaneous dose 16 mg/kg
[29] = single subcutaneous dose 64 mg/kg
[30] = 50 grams per ton of feed, Mycoplasma gallisepticum infected chicks

SMILES: CN(C)[C@@H]1C(O)=C(C(N)=O)C(=O)[C@@]2(O)C(O)=C3C(=O)c4c(O)ccc(Cl)c4[C@@](C)(O)[C@H]3C[C@@H]12 [CTC, Chlortetracycline, reference compound]
- MIC [1]: 0.5 µg/mL (≈ 1.04 µM)
- Final Mean Body Weight (g) of Survivors [2, 24]: 398 g
- Overall % Mortality [2, 24]: 25.0%
- Overall Feed-to-Gain [2, 24]: 1.83
- Mean Air Sac Lesion Scores [2, 24]: 1.88

SMILES: C/C=C\C=C\[C@@H]1O[C@](O)([C@H](CO[C@H]2C[C@@H](OC)[C@@H](O[C@@H]3C[C@@H](OC)[C@@H](O[C@H]4C[C@H](OC)[C@H](O)[C@H](C)O4)[C@H](C)O3)[C@@H](C)O2)C(=O)NC/C=C/C=C(\C)[C@@H](OC)[C@H](C)[C@H]2C[C@H](O)[C@H](/C=C/C=C/C=C/C(=O)O)O2)[C@H](OC(=O)Cc2ccccc2)[C@H](O)C1(C)C [LL-E19020α]
- MIC [3]: 8 µg/mL (≈ 6.52 µM)
- MIC [4]: >256 µg/mL
- ZONE SIZE [5, 25]: 0 mm
- ZONE SIZE [5, 26]: 15 mm
- % Mortality ([6]; 5 ppm): 2.5%
- Feed/Gain ([6]; 5 ppm): 1.97
- Final Weight ([6]; 5 ppm): 639.2
- Lesion Scores ([6]; 5 ppm): 0.35
- % Mortality ([6]; 50 ppm): 2.5%
- Feed/Gain ([6]; 50 ppm): 1.80
- Final Weight ([6]; 50 ppm): 699.4
- Lesion Scores ([6]; 50 ppm): 0.38
- ZONE SIZE [7]: 15 mm
- ZONE SIZE [8]: 13 mm
- MIC [9]: 2 µg/mL (≈ 1.63 µM)
- Minimal Inhibitory Concentration [10]: 16 µg/mL
- Survival Ratios 7 Days After Infection [11, 27]: 2/5
- Survival Ratios 7 Days After Infection ([11]; single subcutaneous dose 8 mg/kg): 4/5
- Survival Ratios 7 Days After Infection [11, 28]: 5/5
- Survival Ratios 7 Days After Infection ([11]; single subcutaneous dose 32 mg/kg): 5/5
- Survival Ratios 7 Days After Infection [11, 29]: 5/5
- Final Mean Body Weight (g) of Survivors ([2]; 10 g/ton in feed): 336 g
- Overall % Mortality ([2]; 10 g/ton in feed): 41.3%
- Overall Feed-to-Gain ([2]; 10 g/ton in feed): 1.88
- Mean Air Sac Lesion Scores ([2]; 10 g/ton in feed): 2.04
- Final Mean Body Weight (g) of Survivors ([2]; 50 g/ton in feed): 349 g
- Overall % Mortality ([2]; 50 g/ton in feed): 36.3%
- Overall Feed-to-Gain ([2]; 50 g/ton in feed): 1.84
- Mean Air Sac Lesion Scores ([2]; 50 g/ton in feed): 2.11
- feed to gain ratios compared with infected nonmedicated chicks [2, 30]: better feed to gain ratios
- mortality compared with infected nonmedicated chicks [2, 30]: less mortality
- weight gain compared with infected nonmedicated chicks [2, 30]: better weight gain
- Survival Ratios 7 Days After Infection [12, 27]: 2/5
- Survival Ratios 7 Days After Infection [12, 28]: 3/5
- Survival Ratios 7 Days After Infection [12, 29]: 3/5
- Survival Ratios 7 Days After Infection ([12]; single subcutaneous dose 256 mg/kg): 3/5
- MIC [13]: 2 to 8 µg/mL
- MIC [14]: 8 µg/mL (≈ 6.52 µM)
- MIC [15]: >256 µg/mL
- MIC [16]: ≧256 µg/ml
- MIC [17, 25]: 1 µg/mL (≈ 0.815 µM)
- MIC [17, 26]: 1 µg/mL (≈ 0.815 µM)
- MIC [18]: ≧256 µg/ml
- Minimal Inhibitory Concentration ([19]; Streptococcus sp. (β-hemolytic) C203): 0.5 µg/mL
- Minimal Inhibitory Concentration ([19]; Streptococcus sp. (β-hemolytic) VGH-84-60): 0.25 µg/mL
- Minimal Inhibitory Concentration ([19]; Streptococcus sp. (β-hemolytic) VGH-84-61): 1 µg/mL
- Minimal Inhibitory Concentration ([19]; Streptococcus sp. (β-hemolytic) VGH-84-62): 1 µg/mL
- Minimal Inhibitory Concentration ([19]; Streptococcus sp. (β-hemolytic) VGH-84-63): 0.12 µg/mL
- Minimal Inhibitory Concentration ([19]; Streptococcus sp. (β-hemolytic) VGH-84-64): 0.12 µg/mL
- Minimal Inhibitory Concentration ([20]; Streptococcus pneumoniae SVI): 1 µg/mL
- Minimal Inhibitory Concentration ([20]; Streptococcus pneumoniae VGH-84-56): 1 µg/mL
- Minimal Inhibitory Concentration ([20]; Streptococcus pneumoniae VGH-84-57): 2 µg/mL
- Minimal Inhibitory Concentration ([20]; Streptococcus pneumoniae VGH-84-58): 0.25 µg/mL
- Minimal Inhibitory Concentration ([20]; Streptococcus pneumoniae VGH-84-59): 0.25 µg/mL
- Minimal Inhibitory Concentration ([21]; Peptococcus magnus ATCC 14956): 0.12 µg/mL
- Minimal Inhibitory Concentration ([21]; Peptococcus magnus ATCC 29328): 0.12 µg/mL
- Minimal Inhibitory Concentration [22]: 4 µg/mL
- MIC [23]: 16 µg/mL (≈ 13 µM)
